Laboratory results: PMC7672424 (Nucleic Acids Research, 2020)

Columns and labels:
c-KIT1 = assay: CD melting, DNA stabilization; format: binding; details: 5 µM DNA, 20 µM BMPQ-1, 10 mM Tris-HCl, 50 mM KCl, pH 7.4
Experimental: (§3) CD studies were performed on a Chirascan circular dichroism spectrophotometer (Jasco, Easton, MD, USA). A quartz cuvette with a 1 mm path length was used to record the spectra over a wavelength range of 220–320 nm with a 1 nm bandwidth. All the samples were prepared in buffer containing 10 mM Tris–HCl pH 7.4, 100 mM KCl. To ensure the concentrations of G-quadruplex units to be 20 μM, multiple G-quadruplexes forming oligonucleotides with different concentrations were used (TTA (G1) 20 μM, TTA45 (G2) 10 μM, TTA69 (G3) 6.67 μM, TTA93 (G4) 5 μM, TTA117 (G5) 4 μM, TTA141 (G6) 3.33 μM). The DNA samples were heated at 95°C for 5 min and cooled down slowly to room temperature. 20, 40 and 60 μM BMPQ-1 were mixed with DNAs separately. Melting curves were measured at 295 nm and the range of temperature was 4–95°C.

[1] = test system: FAM-TTA45-Cy5 (DNA, G4) GGGTTAGGGTTAGGGTTAGGGTTAGGGTTAGGGTTAGGGTTAGGG; assay: smFRET population titration; details: 100 mM K+; 10 mM Tris-HCl pH 7.4, 0.01% Tween 20, 1 mM ascorbic acid, 1 mM methylviologen, room temperature; apparent
tumor cell = assay: Tumor cell proliferation (summary statement); format: cell-based; details: summary value, abstract/introduction
Experimental: The cell growth effect of BMPQ-1 against different cell lines were tested via measuring the quantity of living cells using the Cell Counting Kit-8 (CCK8) (DOJINDO, Japan) according to the instruction. Cells were seeded in a 96-well plate (5 × 10^3 cells/well) and grown for 24 h for attachment. Then the cells were treated with various concentrations of BMPQ-1 and incubated at 37°C with 5% CO2 for 48 h. After incubation, the old medium was discarded followed by adding fresh medium containing 10% FBS in DMEM. Then 100 μl CCK-8 (10% in grow medium) was added into each well, and the cells were further incubated for 1 h. The optical density (OD) was detected at 450 nm by an automated microplate reader (Bio-Rad). The IC50 values were derived from the curves of the mean percentage of survival against the drug concentration. All the experiments were performed in triplicate.

γH2AX foci in A549 cells = assay: Immunofluorescence of γH2AX and TRF2 foci; format: cell-based, human; details: A549, 1.5 μM, 24 h
Experimental: (§1) The cells (5 × 10^4 cells) were seeded on 35-mm glass-bottomed dishes and grown for 24 h for attachment. Then old medium was replaced by fresh DMEM containing 1.5 μM BMPQ-1 and incubated for 24 h. After washed three times with PBS buffer, the cells were fixed in 4% paraformaldehyde/PBS for 15 min and then permeabilized with 0.3% Triton-X 100/PBS at 37°C for 20 min. Then the cells were blocked with 5% BSA/PBS at 37°C for 1 h. Finally, the cells were incubated with primary antibodies at 37°C for 3 h. After that, the cells were washed six times with blocking buffer, and were then incubated with secondary antibodies at 37°C for 3 h. Finally, the cells were washed six times with PBS buffer again. The digital images were recorded using a confocal laser scanning microscopy (Olympus FV1000) and analyzed with ImageJ software. One hundred nuclei were counted in each group. […]
(§2) Figure 2. […] (B) Quantification of the number of γH2AX foci per nucleus in A549 cells treated with or without BMPQ-1. (C) Quantification of the colocalization of γH2AX and TRF2 per nucleus in A549 cells treated with or without BMPQ-1. […] (E) Quantification of the number of BG4 foci per nucleus in A549 cells treated with or without BMPQ-1. (F) Quantification of the colocalized BG4 and TRF2 per nucleus in A549 cells treated with or without BMPQ-1.

[2] = test system: c-KIT2 (DNA, G4) GGGCGGGCGCGAGGGAGGGG; assay: ligand fluorescence enhancement; details: 100 mM K+ (KCl) plus potassium phosphate; 10 mM K2HPO4/KH2PO4 pH 7.0; 3 µM compound, 4 µM DNA; enhancement below 3-fold
[3] = test system: BG4 foci (DNA G-quadruplexes) in A549 cells; assay: Immunofluorescence of BG4 and TRF2 foci; format: cell-based, human; details: A549, 1.5 μM, 24 h
Experimental: as §1, §2

[4] = test system: monomeric G-quadruplexes (TBA, c-KIT1, c-KIT2, c-MYC Pu22, VEGF, TTA), duplex (19AT), single strand (dT30); assay: Fluorescence response of BMPQ-1 to DNA; format: binding; details: 3 μM BMPQ-1, 4 μM other DNAs, λex = 395 nm
Experimental: Figure 1. (A) Structure of BMPQ-1. (B) Fluorescence spectra of BMPQ-1 at λex = 395 nm in the absence or presence of dimeric G-quadruplexes (TTA45), monomeric G-quadruplexes (c-KIT1, c-KIT2, c-MYCPu22, TTA, VEGF, TBA), trinucleotide DNA (CGG12), duplex DNA (19AT) and single-stranded DNA (dT30). The concentration of BMPQ-1 was 3 μM. The concentration of TTA45 was 2 μM and DNAs with other structures were 4 μM. (C) Fluorescence spectra of 6 μM BMPQ-1 at λex = 395 nm in the absence or presence of 2 μM telomeric G-quadruplexes. Oligonucleotide samples were prepared in solution with 10 mM K2HPO4/KH2PO4, pH 7.0, 100 mM KCl. (D) Effect of BMPQ-1 on the CD spectra of 10 μM TTA45 in 10 mM Tris-HCl buffer (pH 7.4) containing 100 mM KCl.
G-quadruplex forming oligonucleotides were annealed in the buffer (10 mM K2HPO4/KH2PO4 pH 7.0, 100 mM KCl) by heating to 95°C for 5 min, followed by gradual cooling to room temperature. Fluorescence spectra were detected by RF-5301PC spectrofluorophotometer (Shimadzu, Japan) at room temperature. The spectra were recorded with 5 nm excitation and emission slit widths. […] For the fluorescence measurements between BMPQ-1 and different DNA sequences, the final concentrations of multimeric G-quadruplex forming oligonucleotides were 2 μM and other DNA oligonucleotides were 4 μM.

TBA = assay: CD melting, DNA stabilization; format: binding; details: 5 µM DNA, 20 µM BMPQ-1, 10 mM Tris-HCl, 50 mM KCl, pH 7.4
Experimental: as §3

[5] = test system: VEGF (DNA, G4) GGGAGGGTTGGGGTGGG; assay: ligand fluorescence enhancement; details: 100 mM K+ (KCl) plus potassium phosphate; 10 mM K2HPO4/KH2PO4 pH 7.0; 3 µM compound, 4 µM DNA; enhancement below 3-fold

## Cc1ccc(Cn2cc3c(-c4ccc5c(c4)OCO5)nnc-3c3cc4c(cc32)OCO4)cc1 [BMPQ-1]
c-KIT1
  ΔTm (°C) c-KIT1: 6.6 °C
[1]
  KD: 527 ± 68.9 nM
Tumor cell
  IC50: ~1000 nM
γH2AX foci in A549 cells
  co-localization between γH2AX foci and TRF2: increase on the co-localization between γH2AX foci and TRF2 was observed with statistical significance
γH2AX foci in A549 cells; compared with control
  average number of γH2AX foci in individual cells: trebled
[2]
  binding: weak
[3]
  amount of BG4 foci in the nucleus: significant increase
  amount of co-localized BG4 and TRF2 foci: significantly increased
[4]
  fluorescence enhancement: less than 3 fold
TBA
  ΔTm (°C) TBA: 4.7 °C
[5]
  binding: weak
